Experimental data taken from patent US20260297083A1, “SUBSTITUTED ACETYLENE COMPOUND DERIVATIVES AND THEIR PHARMACEUTICAL USE” (AVELOS THERAPEUTICS INC., priority 2023, published 2026).

What follows are compounds tested on DLD-1 BRCA2(−/−) Cell (assay: Cell viability assay (Resazurin) in DLD1-BRCA2 cells). Settings: Homo sapiens, DLD-1, 336 h, 14 days, 1,500 cells/well, final DMSO 1%.
Assay type: cell-based
Experimental: DLD1-BRCA2 KG (Horizon Discovery, Cat #HD 105-007) cells and DLD1-parental cells were maintained in culture media (RPMI-1640 including 2 mM L-glutamin and 25 mM sodium bicarbonate, supplemented with 10% FBS), at 37° C. in a humidified atmosphere with 5% CO2. Cells were seeded at the final concentration of 1,500 cells/well (DLD1-BRCA2 KG) and 600 cells/well (DLD1-parental) in a 96-well plate. Four hours later, test compounds were added (the final concentration of DMSO was 1%) to the cells and media were replaced every 3-4 days for 14 days. To measure viability, cells were incubated in culture media supplemented with 0.1 mg/ml of Resazurin (Merck, Cat #R7017) for 4 hours. The fluorescence was measured at Ex/Em=560 nm/590 nm using EnSight multimode plate reader (Perkin Elmer). Data analysis and IC50 calculation was done using GraphPad Prism (Version 10.0.2).

SMILES	IC50
Cc1ccc(F)c(N(CC#Cc2cnc(NC(C)C)cn2)C(=O)[C@@H]2CCS(=O)(=O)N2c2cc(C(F)(F)F)cc(C)n2)c1 [Example 37, (S)-N-(2-fluoro-5-methylphenyl)-N-(3-(5-(isopropylamino)pyrazin-2-yl)prop-2-yn-1-yl)-2-(6-methyl-4-(trifluoromethyl)pyridin-2-yl)isothiazolidine-3-carboxamide 1,1-dioxide]	1100 to 5000 nM
Cc1cccc(N(CC#Cc2cnc(N)cn2)C(=O)[C@@H]2CN(C)S(=O)(=O)N2c2cc(C(F)(F)F)cc(C)n2)c1 [Example 108, (S)-N-(3-(5-aminopyrazin-2-yl)prop-2-yn-1-yl)-5-methyl-2-(6-methyl-4-(trifluoromethyl)pyridin-2-yl)-N-(m-tolyl)-1,2,5-thiadiazolidine-3-carboxamide 1,1-dioxide]	1100 to 5000 nM
Cc1cccc(N(CC#Cc2ccc(N)nn2)C(=O)[C@@H]2CCC(=O)N2c2cc(C(F)(F)F)cc(C)n2)c1 [Example 1, (S)—N-(3-(6-aminopyridazin-3-yl)prop-2-yn-1-yl)-1-(6-methyl-4-(trifluoromethyl)pyridin-2-yl)-5-oxo-N-(m-tolyl)pyrrolidine-2-carboxamide]	< 1000 nM
Cc1cc(C(F)(F)F)cc(N2[C@H](C(=O)N(CC#Cc3cccc(OC(F)F)n3)c3ccc(F)c(C)c3)CCS2(=O)=O)n1 [Example 89, (S)-N-(3-(6-(difluoromethoxy)pyridin-2-yl)prop-2-yn-1-yl)-N-(4-fluoro-3-methylphenyl)-2-(6-methyl-4-(trifluoromethyl)pyridin-2-yl)isothiazolidine-3-carboxamide 1,1-dioxide]	1100 to 5000 nM
Cc1cc(C(F)(F)F)cc(N2[C@H](C(=O)N(CC#Cc3cnc(N4[C@H](C)CN(C(C)C)C[C@H]4C)cn3)c3ccc(F)c(C)c3)CCS2(=O)=O)n1 [Example 55, (S)-N-(4-fluoro-3-methylphenyl)-N-(3-(5-((2R,6R)-4-isopropyl-2,6-dimethylpiperazin-1-yl)pyrazin-2-yl)prop-2-yn-1-yl)-2-(6-methyl-4-(trifluoromethyl)pyridin-2-yl)isothiazolidine-3-carboxamide 1,1-dioxide]	< 1000 nM
Cc1cc(C(F)(F)F)cc(N2[C@H](C(=O)N(CC#Cc3nc(C(N)=O)co3)c3ccc(F)c(C)c3)CCS2(=O)=O)n1 [Example 104, (S)-2-(3-(N-(4-fluoro-3-methylphenyl)-2-(6-methyl-4-(trifluoromethyl)pyridin-2-yl)-1,1-dioxidoisothiazolidine-3-carboxamido)prop-1-yn-1-yl)oxazole-4-carboxamide]	< 1000 nM
Cc1cc(C(F)(F)F)cc(N2[C@@H](C(=O)N(CC#Cc3cnc(N)cn3)c3ccc(F)c(C)c3F)CCS2(=O)=O)n1 [Example 31, (R)-N-(3-(5-aminopyrazin-2-yl)prop-2-yn-1-yl)-N-(2,4-diffuoro-3-methylphenyl)-2-(6-methyl-4-(trifluoromethyl)pyridin-2-yl)isothiazolidine-3-carboxamide 1,1-dioxide]	> 5100 nM
Cc1cc(C(F)(F)F)cc(N2[C@H](C(=O)N(CC#Cc3ccc(NC(C)C)nn3)c3ccc(F)c(C)c3F)CCS2(=O)=O)n1 [Example 21, (S)-N-(2,4-difluoro-3-methylphenyl)-N-(3-(6-(isopropylamino)pyridazin-3-yl)prop-2-yn-1-yl)-2-(6-methyl-4-(trifluoromethyl)pyridin-2-carboxamide 1,1-dioxideyl)isothiazolidine-3-carboxamide 1,1-dioxide]	< 1000 nM
Cc1cc(C(F)(F)F)cc(N2[C@H](C(=O)N(CC#Cc3ccc(C(N)=O)nc3C)c3ccc(F)c(C)c3)CCS2(=O)=O)n1 [Example 117, (S)-N-(3-(6-carbamoyl-2-methylpyridin-3-yl)prop-2-yn-1-yl)-N-(4-fluoro-3-methylphenyl)-2-(6-methyl-4-(trifluoromethyl)pyridin-2-yl)isothiazolidine-3-carboxamide 1,1-dioxide]	< 1000 nM
Cc1cc(C(F)(F)F)cc(N2C(=O)CC[C@H]2C(=O)N(CC#CCN2CCOCC2)c2ccc(F)c(C)c2F)n1 [Example 14, (S)—N-(2,4-difluoro-3-methylphenyl)-1-(6-methyl-4-(trifluoromethyl)pyridin-2-yl)-N-(4-morpholinobut-2-yn-1-yl)-5-oxopyrrolidine-2-carboxamide]	1100 to 5000 nM
Cc1cc(C(F)(F)F)cc(N2C(=O)CC[C@H]2C(=O)N(CC#Cc2ccc(C(N)=O)nc2)c2ccc(F)c(C)c2)n1 [Example 12, (S)-5-(3-(N-(4-fluoro-3-methyl-phenyl)-1-(6-methyl-4-(trifluoro-methyl)pyridin-2-yl)-5-oxo-pyrrolidine-2-carboxamido)prop-1-yn-1-yl)picolinamide]	< 1000 nM

Next, values leading:

IC50	SMILES
< 1000 nM	Cc1cc(C(F)(F)F)cc(N2[C@H](C(=O)N(CC#Cc3cnc(C(N)=O)c(F)c3)c3ccc(F)c(C)c3)CCS2(=O)=O)n1 [Example 96, (S)-N-(3-(6-carbamoyl-5-fluoropyridin-3-yl)prop-2-yn-1-yl)-N-(4-fluoro-3-methylphenyl)-2-(6-methyl-4-(trifluoromethyl)pyridin-2-yl)isothiazolidine-3-carboxamide 1,1-dioxide]
< 1000 nM	Cc1cc(C(F)(F)F)cc(N2[C@H](C(=O)N(CC#Cc3cncc(S(N)(=O)=O)n3)c3ccc(F)c(C)c3)CCS2(=O)=O)n1 [Example 66, (S)-N-(4-fluoro-3-methylphenyl)-2-(6-methyl-4-(trifluoromethyl)pyridin-2-yl)-N-(3-(6-sulfamoylpyrazin-2-yl)prop-2-yn-1-yl)isothiazolidine-3-carboxamide 1,1-dioxide]
< 1000 nM	Cc1cc(C(F)(F)F)cc(N2[C@H](C(=O)N(CC#Cc3ncc(C(=O)N4C5CCC4COC5)cn3)c3ccc(F)c(C)c3)CCS2(=O)=O)n1 [Example 83, (3S)-N-(3-(5-(3-oxa-8-azabicyclo[3.2.1]octane-8-carbonyl)pyrimidin-2-yl)prop-2-yn-1-yl)-N-(4-fluoro-3-methylphenyl)-2-(6-methyl-4-(trifluoromethyl)pyridin-2-yl)isothiazolidine-3-carboxamide 1,1-dioxide]
1100 to 5000 nM	Cc1cc(C(F)(F)F)cc(N2[C@H](C(=O)N(CC#Cc3cnc(N4CCOCC4)c(N)n3)c3ccc(F)c(C)c3)CCS2(=O)=O)n1 [Example 44, (S)-N-(3-(6-amino-5-morpholinopyrazin-2-yl)prop-2-yn-1-yl)-N-(4-fluoro-3-methylphenyl)-2-(6-methyl-4-(trifluoromethyl)pyridin-2-yl)isothiazolidine-3-carboxamide 1,1-dioxide]
< 1000 nM	Cc1cc(C(F)(F)F)cc(N2[C@H](C(=O)N(CC#Cc3cnc(N4CCOCC4)nc3)c3ccc(F)c(C)c3)CCS2(=O)=O)n1 [Example 77, (S)-N-(4-fluoro-3-methylphenyl)-2-(6-methyl-4-(trifluoromethyl)pyridin-2-yl)-N-(3-(2-morpholinopyrimidin-5-yl)prop-2-yn-1-yl)isothiazolidine-3-carboxamide 1,1-dioxide]
< 1000 nM	Cc1cc(C(F)(F)F)cc(N2[C@H](C(=O)N(CC#Cc3ccc(-c4ncon4)nc3)c3ccc(F)c(C)c3)CCS2(=O)=O)n1 [Example 116, (S)-N-(3-(6-(1,2,4-oxadiazol-3-yl)pyridin-3-vl)prop-2-yn-1-yl)-N-(4-fluoro-3-methylphenyl)-2-(6-methyl-4-(trifluoromethyl)pyridin-2-yl)isothiazolidine-3-carboxamide 1,1-dioxide]
< 1000 nM	Cc1cc(C(F)(F)F)cc(N2[C@H](C(=O)N(CC#Cc3cnc(-n4ccnn4)cn3)c3ccc(F)c(C)c3)CCS2(=O)=O)n1 [Example 57, (S)-N-(3-(5-(1H-1,2,3-triazol-1-yl)pyrazin-2-yl)prop-2-yn-1-yl)-N-(4-fluoro-3-methylphenyl)-2-(6-methyl-4-(trifluoromethyl)pyridin-2-yl)isothiazolidine-3-carboxamide 1,1-dioxide]
< 1000 nM	Cc1cc(C(F)(F)F)cc(N2[C@H](C(=O)N(CC#Cc3cnc(C(N)=O)nc3)c3ccc(F)c(C)c3)CCS2(=O)=O)n1 [Example 78, (S)-N-(3-(2-carbamoylpyrimidin-5-yl)prop-2-yn-1-yl)-N-(4-fluoro-3-methylphenyl)-2-(6-methyl-4-(trifluoromethyl)pyridin-2-yl)isothiazolidine-3-carboxamide 1,1-dioxide]
1100 to 5000 nM	Cc1cc(C(F)(F)F)cc(N2[C@H](C(=O)N(CC#Cc3cnc(N)cn3)c3ccc(F)c(C)c3)CCS2(=O)=O)n1 [Example 30, (S)-N-(3-(5-aminopyrazin-2-yl)prop-2-yn-1-yl)-N-(4-fluoro-3-methylphenyl)-2-(6-methyl-4-(trifluoromethyl)pyridin-2-yl)isothiazolidine-3-carboxamide 1,1-dioxide]
< 1000 nM	Cc1cc(C(F)(F)F)cc(N2C(=O)CC[C@H]2C(=O)N(CC#Cc2cnc(N3CCOCC3)cn2)c2ccc(F)c(C)c2)n1 [Example 10, (S)-N-(4-fluoro-3-methylphenyl)-1-(6-methyl-4-(trifluoromethyl)pyridin-2-yl)-N-(3-(5-morpholinopyrazin-2-yl)prop-2-yn-1-yl)-5-oxopyrrolidine-2-carboxamide]
> 5100 nM	CNC(=O)c1cnc(C#CCN(C(=O)[C@@H]2CCS(=O)(=O)N2c2cc(C(F)(F)F)cc(C)n2)c2ccc(F)c(C)c2)cn1 [Example 67, (S)-N-(4-fluoro-3-methylphenyl)-2-(6-methyl-4-(trifluoromethyl)pyridin-2-yl)-N-(3-(5-(methylcarbamoyl)pyrazin-2-yl)prop-2-yn-1-yl)isothiazolidine-3-carboxamide 1,1-dioxide]
